Source: publication PMC7961380, “A Systematic Study of the In Vitro Pharmacokinetics and Estimated Human In Vivo Clearance of Indole and Indazole-3-Carboxamide Synthetic Cannabinoid Receptor Agonists Detected on the Illicit Drug Market” (Molecules, 2021)
Read-outs that look alike come from different tables or passages of the source.

Assays:
[1] = Metabolic stability, pooled human cryopreserved hepatocyte incubations; details: human, hepatocytes; for CLint scaled at 0.5 µM: Intrinsic clearance, pHHeps, alternative hepatocyte cell density 99x10^6 hepatocytes per gram liver
[2] = tested on: pooled human cryopreserved hepatocytes (pHHeps); experiment: as above; details: for Predicted In Vivo Hepatic Clearance, CLH: from pHHeps CLint, well-stirred model with plasma fu, Q 21 mL min^−1 kg^−1
[3] = Metabolic stability, pooled human liver microsome incubations; details: for Predicted In Vivo Hepatic Clearance, CLH: from pHLM CLint, well-stirred model with plasma fu, Q 21 mL min^−1 kg^−1; for CLint scaled at 0.5 µM / half-life at 0.5 µM: human, microsomes; for CLint scaled at 0.5 µM: pH 7.4, Intrinsic clearance; for half-life at 0.5 µM: pH 7.4, T1/2 (min), pHLM 0.5 mg mL^−1, 0.5 µM, NADPH, 37 °C; for half-life at 0.5 µM / Microsomal Intrinsic Clearance, CLint micr: n ≥ 3 ± SD
[4] = Plasma protein binding by equilibrium dialysis; assay type: in vitro ADME, human; details: for fraction unbound at 5 h, 10 µg mL^−1: human, pooled human plasma, pH 7.4, equilibrium dialysis 5 h
[5] = Short-term plasma stability with and without esterase inhibitors; details: human, pH 7.4, Parent Compound Remaining (%), 3 h, 37 °C
[6] = T1/2 (min), pHHeps 0.25 million cells mL^−1, 0.5 µM, 37 °C, n ≥ 3 ± SD
[7] = pHHeps, 99x10^6 hepatocytes per gram liver
[8] = pHLM, alternative microsomal scaling factor 32 mg microsomal protein per gram liver
[9] = pHLM, alternative microsomal scaling factor 45 mg microsomal protein per gram liver
[10] = pHLM, scaling factor 32 mg microsomal protein per gram liver
[11] = pHLM, scaling factor 45 mg microsomal protein per gram liver
[12] = Esterase Inhibitors, pH 7.4, BNPP and PMSF 500 µM each
[13] = plasma, No Esterase Inhibitors, pH 7.4, pooled human plasma
[14] = 37 °C, 10 µg mL^−1, read-out: PPB (%) (converted)
[15] = 37 °C, plasma, read-out: Fraction Unbound (fu)

SMILES	CLint scaled at 0.5 µM [1] [mL/min/kg]	half-life at 0.5 µM [1, 6] [min]	Predicted In Vivo Hepatic Clearance, CLH [2] [mL/min/kg]	Hepatic extraction ratio, EH ([2]; from pHHeps incubations)	Hepatic extraction ratio, EH [2, 7]	Predicted in vivo hepatic clearance, CLH [2, 7] [mL/min/kg]	% parent compound remaining, Average ([2]; pHHeps, 3 min) [%]	% parent compound remaining, Average ([2]; pHHeps, 6 min) [%]	% parent compound remaining, Average ([2]; pHHeps, 9 min) [%]	% parent compound remaining, Average ([2]; pHHeps, 15 min) [%]	% parent compound remaining, Average ([2]; pHHeps, 30 min) [%]	% parent compound remaining, Average ([2]; pHHeps, 45 min) [%]	% parent compound remaining, Average ([2]; pHHeps, 60 min) [%]	Predicted In Vivo Hepatic Clearance, CLH [3] [mL/min/kg]	Hepatic extraction ratio, EH ([3]; from pHLM incubations)	CLint scaled at 0.5 µM [3, 8] [mL/min/kg]	CLint scaled at 0.5 µM [3, 9] [mL/min/kg]	half-life at 0.5 µM [3] [min]	% parent compound remaining, Average ([3]; pHLM, 3 min) [%]	% parent compound remaining, Average ([3]; pHLM, 6 min) [%]	other results
COC(=O)[C@@H](NC(=O)c1nn(CCCCCF)c2ccccc12)C(C)(C)C [(S)-5F-MDMB-PINACA (2), methyl 2-[1-(5-fluoropentyl)-1H-indazole-3-carboxamido]-3,3-dimethylbutanoate]	559	13 ± 3.3	8.05 ± 1.15	0.38 ± 0.055	0.37	7.67	77.3	66.9	57.5	48.3	21.1	10.6	5.6	4.76 ± 0.17	0.23 ± 0.008	171	240 ± 11	6.7 ± 0.31	69.9	51.7	half-life at 0.5 µM ([1]; half-life, pHHep lot HUE50-N): 13.3 ± 3.4 min; half-life ([2]; pHHep lot HUE50-P): 13.2 ± 3.4 min; % parent compound remaining, Average ([3]; pHLM, 9 min): 39.0%; % parent compound remaining, Average ([3]; pHLM, 15 min): 22.7%; % parent compound remaining, Average ([3]; pHLM, 30 min): 6.1%; Microsomal Intrinsic Clearance, CLint micr ([3]; pHLM): 0.207 ± 0.009 mL min^−1 mg Microsomal Protein^−1; Hepatic extraction ratio, EH [3, 10]: 0.15 ± 0.006; Predicted in vivo hepatic clearance, CLH [3, 10]: 3.18 mL/min/kg; Hepatic extraction ratio, EH [3, 11]: 0.20 ± 0.007; Predicted in vivo hepatic clearance, CLH [3, 11]: 4.22 ± 0.15 mL/min/kg; PPB (%) ([4]; equilibrium dialysis 5 h, 37 °C, 10 µg mL^−1): 97.8 ± 0.19%; Fraction Unbound (fu) ([4]; equilibrium dialysis 5 h, 37 °C, plasma): 0.022 ± 0.0019; remaining at 3 h, 5 µM [5, 12]: 97 ± 1.1%; remaining at 3 h, 5 µM [5, 13]: 92.5 ± 10.2%
C=CCCCn1cc(C(=O)N[C@H](C(=O)OC)C(C)C)c2ccccc21 [(S)-AMB-4en-PICA (7), methyl 3-methyl-2-[(1-pent-4-enylindole-3-carbonyl)amino] butanoate]	1120	6.9 ± 2.1	15.56 ± 1.24	0.74 ± 0.059	0.73 ± 0.061	15.25 ± 1.28	68.4	54.6	33.2	19.4	6.5	1.9	0.6	9.29 ± 0.89	0.44 ± 0.042	194	273	6 ± 1	67.6	49.5	% parent compound remaining, Average ([3]; pHLM, 9 min): 36.3%; % parent compound remaining, Average ([3]; pHLM, 15 min): 18.0%; % parent compound remaining, Average ([3]; pHLM, 30 min): 3.0%; Microsomal Intrinsic Clearance, CLint micr ([3]; pHLM): 0.236 ± 0.042 mL min^−1 mg Microsomal Protein^−1; Hepatic extraction ratio, EH [3, 10]: 0.33 ± 0.038; Predicted in vivo hepatic clearance, CLH [3, 10]: 6.86 mL/min/kg; Predicted in vivo hepatic clearance, CLH [3, 11]: 8.51 mL/min/kg; fraction unbound at 5 h, 10 µg mL^−1 [4, 14]: 0.053; fraction unbound at 5 h, 10 µg mL^−1 [4, 15]: 0.053 ± 0.0037; remaining at 3 h, 5 µM [5, 12]: 95.6 ± 6.8%; remaining at 3 h, 5 µM [5, 13]: 92.6 ± 8.3%
C=CCCCn1cc(C(=O)N[C@@H](C(=O)OC)C(C)C)c2ccccc21 [(R)-AMB-4en-PICA (7), methyl 3-methyl-2-[(1-pent-4-enylindole-3-carbonyl)amino] butanoate]	1470	5.5 ± 2.1	16.79 ± 1.33	0.80 ± 0.063	0.79 ± 0.066	16.53 ± 1.39	57.7	46.1	25.6	13.7	4.6	1.6	0.6	11.8 ± 0.97	0.56 ± 0.046	286	402	4.1 ± 0.75	56.4	36.2	% parent compound remaining, Average ([3]; pHLM, 9 min): 22.6%; % parent compound remaining, Average ([3]; pHLM, 15 min): 9.6%; % parent compound remaining, Average ([3]; pHLM, 30 min): 1.6%; Microsomal Intrinsic Clearance, CLint micr ([3]; pHLM): 0.348 ± 0.068 mL min^−1 mg Microsomal Protein^−1; Hepatic extraction ratio, EH [3, 10]: 0.44 ± 0.047; Predicted in vivo hepatic clearance, CLH [3, 10]: 9.28 mL/min/kg; Predicted in vivo hepatic clearance, CLH [3, 11]: 11.05 mL/min/kg; recovery (total peak area in dialysed samples vs 4 °C samples) ([4]; PPB thermal stability control, 5 h): 95 ± 2.0%; fraction unbound at 5 h, 10 µg mL^−1 [4, 14]: 0.059; fraction unbound at 5 h, 10 µg mL^−1 [4, 15]: 0.059 ± 0.001; remaining at 3 h, 5 µM [5, 12]: 95.5 ± 2.9%; remaining at 3 h, 5 µM [5, 13]: 91.7 ± 1.9%
C=CCCCn1nc(C(=O)N[C@@H](C(=O)OC)C(C)(C)C)c2ccccc21 [(R)-MDMB-4en-PINACA (5), methyl 3,3-dimethyl-2-[1-(pent-4-en-1-yl)-1H-indazole-3-carboxamido] butanoate]	335 ± 61.6	22 ± 3.6	5.16 ± 0.70	0.25 ± 0.033	0.23 ± 0.032	4.86 ± 0.67	80.8	77.7	70.3	58.1	38.0	26.6	20.8	4.94 ± 0.39	0.24 ± 0.019	208	292	5.5 ± 0.59	68.4	48.2	% parent compound remaining, Average ([3]; pHLM, 9 min): 32.3%; % parent compound remaining, Average ([3]; pHLM, 15 min): 14.6%; % parent compound remaining, Average ([3]; pHLM, 30 min): 2.5%; Microsomal Intrinsic Clearance, CLint micr ([3]; pHLM): 0.253 ± 0.026 mL min^−1 mg Microsomal Protein^−1; Hepatic extraction ratio, EH [3, 10]: 0.16 ± 0.014; Predicted in vivo hepatic clearance, CLH [3, 10]: 3.32 mL/min/kg; Hepatic extraction ratio, EH [3, 11]: 0.21 ± 0.017; Predicted in vivo hepatic clearance, CLH [3, 11]: 4.38 ± 0.36 mL/min/kg; fraction unbound at 5 h, 10 µg mL^−1 [4, 14]: 0.019; fraction unbound at 5 h, 10 µg mL^−1 [4, 15]: 0.019 ± 0.0071; remaining at 3 h, 5 µM [5, 12]: 89.4 ± 3.4%; remaining at 3 h, 5 µM [5, 13]: 87.2 ± 6.9%
C=CCCCn1nc(C(=O)N[C@H](C(=O)OC)C(C)(C)C)c2ccccc21 [(S)-MDMB-4en-PINACA (5), methyl 3,3-dimethyl-2-[1-(pent-4-en-1-yl)-1H-indazole-3-carboxamido] butanoate]	632	12 ± 2.6	5.11 ± 0.89	0.24 ± 0.042	0.23	4.82	79.7	69.0	56.7	41.1	17.1	7.6	3.4	2.66 ± 0.37	0.13 ± 0.018	186	262 ± 42.3	6.3 ± 1	72.3	52.7	% parent compound remaining, Average ([3]; pHLM, 9 min): 36.7%; % parent compound remaining, Average ([3]; pHLM, 15 min): 18.6%; % parent compound remaining, Average ([3]; pHLM, 30 min): 3.1%; Microsomal Intrinsic Clearance, CLint micr ([3]; pHLM): 0.226 ± 0.037 mL min^−1 mg Microsomal Protein^−1; Hepatic extraction ratio, EH [3, 10]: 0.08 ± 0.012; Predicted in vivo hepatic clearance, CLH [3, 10]: 1.71 mL/min/kg; Hepatic extraction ratio, EH [3, 11]: 0.11 ± 0.016; Predicted in vivo hepatic clearance, CLH [3, 11]: 2.32 ± 0.33 mL/min/kg; fraction unbound at 5 h, 10 µg mL^−1 [4, 14]: 0.01; fraction unbound at 5 h, 10 µg mL^−1 [4, 15]: 0.01 ± 0.0001; remaining at 3 h, 5 µM ([5]; plasma, Esterase Inhibitors, pH 7.4, BNPP and PMSF 500 µM each): 89 ± 3.3%; remaining at 3 h, 5 µM [5, 13]: 94.8 ± 0.7%
